Read-outs that look alike come from different tables or passages of the source.
Details: for release profile: versus control, FIG. 12
Experimental: Two layers of dialysis tubing (Thermo-Fisher, Waltham, Mass.) were cut to fit across the opening at the joint of the Franz cell. For control measurements, 500 μL of a 1.3 mg/mL solution of nicotine in D.I. water was pipetted into the top of the cell. Samples were removed from the receptor cell at various time points as indicated in the graph in FIG. 12.
Subsequent experiments added small amounts of polymer-coated carbon nanoparticles between the two layers of dialysis tubing. The overall coverage was approximated by taking a photograph of the combined double layer nanoparticle sandwich from the top and assessing the darkness of the layer. […] For approximately 35% coverage [circles] and for full (100%) coverage [triangles], a sample of 500 μL of a 1.3 mg/mL solution of nicotine in D.I. water was pipetted into the top of the cell and samples were removed at various time points.

With `CN1CCCC1c1cccnc1` (stereo not drawn) [nicotine] the release profile (approximately 35% coverage with polymer-coated carbon nanoparticles between two layers of dialysis tubing) was “very similar to the control”, the “reduction in the total nicotine delivered over 24 hours” value (full (100%) coverage with polymer-coated carbon nanoparticles between two layers of dialysis tubing, versus control without particles, 500 μL of 1.3 mg/mL nicotine in D.I. water) was 50% and the release profile (full (100%) coverage with polymer-coated carbon nanoparticles between two layers of dialysis tubing) was “sizeable difference”.
